{"source": "ChEMBL document CHEMBL2439984", "about": "“Design, synthesis, and bioevaluation of viral 3C and 3C-like protease inhibitors” (Bioorg Med Chem Lett, 2013)", "key": {"Norwalk virus": {"test_system": "Norwalk virus", "assay": "Antiviral activity against Norwalk virus infected in human HG23 cells", "assay_type": "functional, cell-based"}, "[1]": {"molecular_target": "T1, Neutrophil elastase (Homo sapiens) (UniProt P08246)", "T1 sequence (whole entry)": "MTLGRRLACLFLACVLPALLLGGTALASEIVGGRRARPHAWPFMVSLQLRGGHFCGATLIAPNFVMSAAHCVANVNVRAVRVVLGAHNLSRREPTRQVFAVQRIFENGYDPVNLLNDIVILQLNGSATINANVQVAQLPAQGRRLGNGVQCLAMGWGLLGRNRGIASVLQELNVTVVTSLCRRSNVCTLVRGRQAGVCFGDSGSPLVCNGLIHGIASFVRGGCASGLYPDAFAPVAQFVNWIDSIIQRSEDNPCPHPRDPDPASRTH", "assay": "Inhibition of human neutrophil elastase using MeO-Suc-Ala-Ala-Pro-Val-pNa as substrate up to 10 uM preincubated for 30 mins prior to substrate addition measured for 120 seconds by spectrophotometric analysis"}, "Human coronavirus 229E": {"test_system": "Human coronavirus 229E", "assay": "Antiviral activity against Coronavirus 229E infected in human […] cells", "assay_type": "functional, organism-based"}, "[2]": {"assay": "Antiviral activity against Murine norovirus 1 infected in human […] cells", "assay_type": "functional, cell-based", "settings": "Norwalk virus"}, "Homo sapiens": {"species": "Homo sapiens", "assay": "Inhibition of alpha-chymotrypsin (unknown origin) using Suc-Ala-Ala-Pro-Phe as substrate up to 10 uM preincubated for 10 mins prior to substrate addition measured for 60 seconds by spectrophotometric analysis"}, "[3]": {"assay": "Inhibition of Norovirus MD145 protease 3C by FRET assay"}, "[4]": {"assay": "Cytotoxicity against human HG23 cells after 72 hrs by crystal violet staining-based assay", "assay_type": "cell-based"}, "[5]": {"molecular_target": "Prothrombin (Homo sapiens) (UniProt P00734)", "assay": "Inhibition of thrombin (unknown origin) using N-p-tosyl-Gly-Pro-Lys-pNa as substrate up to 10 uM preincubated for 30 mins prior to substrate addition measured for 120 seconds by spectrophotometric analysis"}, "[6]": {"molecular_target": "Replicase polyprotein 1ab (Severe acute respiratory syndrome-related coronavirus, UniProt P0C6X7)", "assay": "Inhibition of SARS coronavirus 3C-like protease by FRET assay"}, "[7]": {"assay": "Inhibition of Human rhinovirus sp. […] protease by FRET assay"}, "[8]": {"assay": "Antiviral activity against Human rhinovirus 18 infected in human […] cells", "assay_type": "functional, cell-based, Human rhinovirus A18", "settings": "Rhinovirus A"}, "Trypsin (Homo sapiens)": {"molecular_target": "Trypsin (Homo sapiens) (UniProt P07477+P07478+P35030)", "assay": "Inhibition of trypsin (unknown origin) using BAPNA as substrate up to 10 uM preincubated for 10 mins prior to substrate addition measured for 300 seconds by spectrophotometric analysis", "assay_type": "protein assay"}, "[9]": {"assay": "Inhibition of SARS coronavirus protease 3C by FRET assay", "design": "species or system Severe acute respiratory syndrome-related coronavirus"}}, "note": "Calls of active or inactive are those of the source. The rule behind the calls is not given here.", "data": [{"smiles": "CC(C)C[C@H](NC(=O)[C@H](Cc1cccc2ccccc12)NC(=O)OCc1ccccc1)C(=O)N[C@@H](C[C@@H]1CCNC1=O)C(O)S(=O)(=O)O", "note": "(stereo partly specified)", "values": [{"measurement": "EC50", "setting": "Norwalk virus", "result": 40, "unit": "nM"}]}, {"smiles": "CC(C)C[C@H](NC(=O)[C@H](Cc1ccc(-c2ccccc2)cc1)NC(=O)OCc1ccccc1)C(=O)N[C@H](C=O)C[C@@H]1CCNC1=O", "values": [{"measurement": "EC50", "setting": "Norwalk virus", "result": 50, "unit": "nM"}]}, {"smiles": "CC(C)C[C@H](NC(=O)[C@H](Cc1ccc2ccccc2c1)NC(=O)OCc1ccccc1)C(=O)N[C@H](C=O)C[C@@H]1CCNC1=O", "values": [{"measurement": "EC50", "setting": "Norwalk virus", "result": 80, "unit": "nM"}]}, {"smiles": "CC(C)C[C@H](NC(=O)[C@H](Cc1ccccc1)NC(=O)OCc1ccccc1)C(=O)N[C@H](C=O)C[C@@H]1CCNC1=O", "values": [{"measurement": "EC50", "setting": "Norwalk virus", "result": 60, "unit": "nM"}]}, {"smiles": "CC(C)C[C@H](NC(=O)[C@@H](Cc1cccc2ccccc12)NC(=O)OCc1ccccc1)C(=O)N[C@H](C=O)C[C@@H]1CCNC1=O", "values": [{"measurement": "EC50", "setting": "Norwalk virus", "result": 450, "unit": "nM"}]}, {"smiles": "CC(C)C[C@H](NC(=O)[C@H](Cc1cccc2ccccc12)NC(=O)OCc1ccccc1)C(=O)N[C@H](C=O)C[C@@H]1CCNC1=O", "values": [{"measurement": "inhibition", "setting": "[1]", "result": "inactive"}, {"measurement": "EC50", "setting": "Human coronavirus 229E", "result": 200, "unit": "nM"}, {"measurement": "EC50", "setting": "[2]", "result": 600, "unit": "nM"}, {"measurement": "inhibition", "setting": "Homo sapiens", "result": "inactive"}, {"measurement": "IC50", "setting": "[3]", "result": 510, "unit": "nM"}, {"measurement": "CC50 at 72 h", "setting": "[4]", "result": 87000, "unit": "nM"}, {"measurement": "inhibition", "setting": "[5]", "result": "inactive"}, {"measurement": "IC50", "setting": "[6]", "result": 230, "unit": "nM"}, {"measurement": "IC50", "setting": "[7]", "result": 150, "unit": "nM"}, {"measurement": "EC50", "setting": "[8]", "result": 15, "unit": "nM"}, {"measurement": "inhibition", "setting": "Trypsin (Homo sapiens)", "result": "inactive"}, {"measurement": "EC50", "setting": "Norwalk virus", "result": 40, "unit": "nM"}]}, {"smiles": "CC(C)C[C@H](NC(=O)[C@H](Cc1cccc2ccccc12)NC(=O)OCc1ccccc1)C(=O)N[C@@H](C[C@@H]1CCNC1=O)C(=O)C(=O)NC(C)C", "values": [{"measurement": "EC50", "setting": "Human coronavirus 229E", "result": 500, "unit": "nM"}, {"measurement": "EC50", "setting": "[2]", "result": 4200, "unit": "nM"}, {"measurement": "IC50", "setting": "[3]", "result": 3100, "unit": "nM"}, {"measurement": "CC50 at 72 h", "setting": "[4]", "result": "> 100000", "unit": "nM"}, {"measurement": "IC50", "setting": "[7]", "result": 120, "unit": "nM"}, {"measurement": "EC50", "setting": "[8]", "result": 30, "unit": "nM"}, {"measurement": "IC50", "setting": "[9]", "result": 610, "unit": "nM"}, {"measurement": "EC50", "setting": "Norwalk virus", "result": 4200, "unit": "nM"}]}, {"smiles": "CCOP(=O)(OCC)C(O)[C@H](C[C@@H]1CCNC1=O)NC(=O)[C@H](CC(C)C)NC(=O)[C@H](Cc1cccc2ccccc12)NC(=O)OCc1ccccc1", "note": "(stereo partly specified)", "values": [{"measurement": "EC50", "setting": "Norwalk virus", "result": 100, "unit": "nM"}]}]}
